Data reported in article PMC9499525, “Tissue-restricted inhibition of mTOR using chemical genetics” (Proceedings of the National Academy of Sciences of the …, 2022).
Read-outs that look alike come from different tables or passages of the source.

Key:
[1] = test system: mTOR signaling in Flp-In T-REx 293 FKBP12 V55G cells; test: mTOR signaling by Western blot in FKBP12 V55G-expressing Flp-In 293 cells; assay type: cell-based, human; settings: for IC50: Homo sapiens, 24 h treatment, mutant (FKBP12 V55G) 293 cells
Experimental: All cell lines were maintained in DMEM (Gibco) supplemented with 10% heat-inactivated FBS (Axenia Biologix) at 37 °C in 5% CO2. Flp-In T-REx 293 cells were obtained from Thermo Fisher supplemented with 15 µg/mL blasticin and 100 µg/mL Zeocin. Flp-In T-REx 293 FKBP12 V55G cells were supplemented with 15 µg/mL blasticin and 150 µg/mL hygromycin B. FKBP12 V55G expression was induced with 1 µg/mL doxycycline 24 h prior to drug treatments. MCF7 cells were obtained from ATCC (American Type Culture Collection), and MCF7 mTOR F2108L cells were described previously ([30]). When indicated, cells were treated with drugs at 60–80% confluency at a final DMSO concentration of 0.1%. At the end of the treatment period, cells were placed on ice and washed once with PBS. Cells were scraped with a spatula and lysed in radioimmunoprecipitation assay (RIPA) buffer supplemented with protease and phosphatase inhibitors (cOmplete and phosSTOP, Roche) on ice for 5 min. Lysates were clarified by high-speed centrifugation. Lysate concentration was determined by Bradford assay (Thermo Fisher) and adjusted to 2 mg/mL with additional RIPA buffer. Samples were mixed with 5x SDS loading dye and heated at 95 °C for 5 min.
SDS-PAGE was run with Novex 4–12% Bis-Tris gel (Invitrogen) in MOPS running buffer at 200V for 40 min. Samples were loaded at 20 µg lysate per lane. Protein bands were transferred onto 0.2 µm nitrocellulose membranes (Bio-Rad) using wet tank transfer apparatus (Bio-Rad Criterion Blotter) in 1x TOWBIN buffer with 10% methanol at 75V for 45 min. Membranes were blocked in 5% BSA-TBST (tris-buffered saline, 0.1% Tween 20) for 1 h at room temperature. Membranes were cut into separate strips for each primary antibody. Primary antibody binding was performed with the indicated antibodies at manufacturer’s recommended dilution in 5% BSA-TBST at 4 °C overnight. After three 5 min. washes with TBST, secondary antibodies (Li-COR) were added as solutions in 5% skim milk-TBST at 1:10,000 dilutions. Secondary antibodies were incubated for 1 h at room temperature. Following three 5 min. washes with TBST, membranes were imaged on a Li-COR Odyssey fluorescence imager. Image contrast was adjusted independently for each strip using the “Auto” adjustment function in Fiji. Blot quantification was performed in Fiji, and data were graphed and fit in Prism 9 (GraphPad). The following primary antibodies were obtained from Cell Signaling Technology (CST), Abcam (ab), and ProteinTech (PT): S6 (CST 2317), phospho-S6 S240/244 (CST 5364), S6K (CST 2708), phospho-S6K T389 (CST 9206), Akt (CST 2920), phospho-Akt S473 (CST 4060), HA (CST 3724), FKBP12 (ab58072), and GAPDH (PT 60004). For detection of phosphorylated and total protein, primary antibodies for phospho-Akt/Akt, phospho-S6K/S6K, or phospho-S6/S6 were combined and detected using a mixture of species-specific secondary antibodies with orthogonal fluorescence to allow simultaneous detection of phosphorylated and total protein from a single membrane, or membrane was stripped (Cell Signaling Technology) after detection of phosphorylated protein and then reblocked and reprobed with primary antibody for total protein. […]
Generation of 293 Flp-In T-REx FKBP12 V55G cell line
FKBP12 V55G-expressing Flp-In T-REx 293 cells were generated using recommended conditions from Thermo Fisher. Briefly, human FKBP12 V55G-HA coding sequence was cloned into the pcDNA5/FRT/TO targeting vector by Gibson assembly. […]

[2] = test system: Flp-In 293 cells with and without FKBP12 V55G-HA; test: Cell growth by CellTiter-Glo in Flp-In 293 cells; assay type: cell-based, human; settings: 72 h treatment
Experimental: All cell lines were maintained in DMEM (Gibco) supplemented with 10% heat-inactivated FBS (Axenia Biologix) at 37 °C in 5% CO2. Flp-In T-REx 293 cells were obtained from Thermo Fisher supplemented with 15 µg/mL blasticin and 100 µg/mL Zeocin. […] When indicated, cells were treated with drugs at 60–80% confluency at a final DMSO concentration of 0.1%.
Cells were seeded into 96-well tissue-culture treated plates (Greiner) and were allowed to incubate for 24 h. Cells were treated with indicated compounds and incubated for 72 h (100 µL final well volume, 0.1% DMSO). Cell viability was assessed by CellTiter-Glo (Promega). Assay reagent was diluted 1:4 in PBS containing 1% Triton X-100, and 100 µL was added to each well and mixed on a plate shaker for 20 min. Luminescence was measured on a Tecan Spark 20M.

[3] = test system: S. cerevisiae BY4741 fpr1-KO expressing human FKBP12 variants; test: Yeast disk diffusion growth inhibition assay; assay type: cell-based, Saccharomyces cerevisiae; settings: 100 µM on disk, 3 d
Excerpt: BY4741 fpr1::URA3 yeast were generated by homologous recombination, selected on Ura- synthetic complete medium and subsequently grown in yeast extract-peptone-dextrose (YPD) medium ([46]). Human FKBP12 coding sequence was cloned via Gibson assembly into a pCH043 yeast expression vector, which had been previously modified with an HIS3 selection open reading frame (ORF). The C-terminal HA-tag and F46/V55 mutations were introduced by site-directed mutagenesis PCR. Plasmids were transformed into the BY4741 fpr1::URA3 strain and selected on His- synthetic complete medium. Isolated strains were verified by plasmid sequencing. To prepare yeast protein lysates, 2 optical density (OD) equivalents from an overnight culture was resuspended in 200 µl 0.1 M NaOH and incubated at room temperature for 15 min. Cells were pelleted, resuspended in 50 µL 2x SDS loading dye, and heated at 95 °C for 5 min. Following centrifugation at 20,000 × g for 10 min, supernatant was saved for analysis.
Yeast strains containing FKBP12-expression vectors were shaken overnight at 30 °C in 3 mL His- synthetic complete media. 0.1 OD of culture was spun down, resuspended in 1 mL sterile water, and 100 µL was spread on His-synthetic media containing galactose/raffinose to induce protein expression. Plates were incubated at 30 °C for 1 h to dry. Filter paper circles were prepared with a hole punch, placed on the plate, and 5 µL of DMSO, 100 µM rapamycin, or 100 µM Rapa* compound was pipetted onto the filter paper. Plates were incubated at 30 °C for 3 d before zones of growth inhibition were measured.

SMILES: CCO/N=C1/C[C@@H]([C@H](C)C[C@@H]2CC[C@@H](O)[C@H](OC)C2)OC(=O)[C@@H]2CCCCN2C(=O)C(=O)[C@]2(O)O[C@@H](CC[C@H]2C)C[C@H](OC)/C(C)=C/C=C/C=C/[C@@H](C)C[C@@H](C)C(=O)[C@H](OC)[C@H](O)/C(C)=C/[C@H]1C [Rapa*-3Z]
- Time to half-maximal inhibition of S6 phosphorylation ([1]; 10 nM, mutant FKBP12 293 cells): 31 min
- Akt phosphorylation (mTORC2 substrate) ([1]; 24 h, mutant vs wild-type 293 cells): selectively reduced Akt phosphorylation in the mutant 293 cells at higher doses
- IC50 ([1]; read-out: IC50 phospho-S6): 1.3 nM
- IC50 ([1]; read-out: IC50 phospho-S6K): 1 nM
- Increase in sensitivity in mutant-expressing cells vs wild-type cells ([1]; p-S6K and p-S6 IC50s, 24 h): ~100 fold
- Cell growth inhibition, 293 cells with and without FKBP12 V55G [2]: selectively inhibited growth of mutant-expressing 293 cells
- Growth inhibition of yeast expressing FKBP12 V55G [3]: displayed the highest level of inhibition
